Earlier results on one compound are cited in USRE41289E1, “Ultrashort acting hypnotic barbiturates” (ARYx Therapeutics, Inc., priority 2000, dated 2010).

For the data set the following is noted: in vivo.

Regarding `CN1C(=O)NC(=O)C(C)(C2=CCCCC2)C1=O` (stereo not shown) [hexobarbital], the half-life of elimination is 2.7 to 7 h.
